Measurements reported in patent US10507242B2, “Combination therapy for treating breast cancer” (Genzyme Corporation, priority 2010, dated 2019).
“Also recorded” adds a separate entry of the source.

Legend:
[1] = Study 1 (09-3493): treatment-related adverse events; format: in vivo; settings: ixabepilone 6 mg/kg, capecitabine 360 mg/kg, antibody 10 mg/kg
Description: • Time points: Day 0: Investigators inject 50,000 4T1 cells+[…] ® subcutaneously in the right flank • Day 3: Investigators begin 2-3×/week tumor measurements • Day 6: DCM Staff begin antibody dosing IP 3×/week • DCM Staff begin ixabepilone dosing IV Q4D×3 • DCM Staff begin capecitabine dosing by oral gavage QD×14 • Animals were sacrificed when the primary tumors reached a volume of 2000 mm^3 or prior to the study takedown if they presented with moribund conditions (lack of grooming, labored breathing, cachexia, anorexia, or lethargy). After sacrifice, the primary tumor was halved with one half embedded in OCT, and the other placed in zinc buffered formalin. The lungs and any other tissues bearing metastases were harvested and stored in zinc buffered formalin for enumeration of lung mets and IHC. • Tissues: Primary tumors m OCT and zinc buffered formalin, lungs harvested in zinc buffered formalin for assessment of metastasis and subsequent IHC.
Mice were sacrificed once primary tumor volumes reached 2000 mm^3 or greater or if the tumors became ulcerated>20% of the tumor's surface area, or if the animals presented with moribund conditions (lack of grooming, labored breathing, cachexia, anorexia or lethargy). Upon sacrifice, gross necropsies were performed and tumors, lungs and other tissues bearing metastases were harvested. […]

subcutaneous 4T1 tumors [2] = experiment: Study 2 (09-3494): primary tumor growth in the SQ 4T1 model; format: in vivo, Balb/c mice; settings: for effect on SQ 4T1 primary tumor growth / tumor volume: antibody 10 mg/kg IP 3x/week, ixabepilone 3 mg/kg IV Q4Dx3, capecitabine 360 mg/kg oral QDx14, to Day 23
Description: Treatment groups, time points, and tissues were similar to the study described above.
For proper analysis of metastasis, all mice were sacrificed on study Day 23. […] The primary tumor was bisected, with one half frozen in OCT and the other half stored in RNALATER™ for qPCR analysis. The lungs were fixed in zinc-buffered formalin for enumeration of pulmonary mets and subsequent IHC analysis.

[3] = Study 2 (09-3494): toxicity observations; format: in vivo, Balb/c mice; settings: ixabepilone 3 mg/kg, capecitabine 360 mg/kg, antibody 10 mg/kg
subcutaneous 4T1 tumors [4] = experiment: Study 3 (09-4255): primary tumor growth in the SQ 4T1 model; format: in vivo, BALB/c mice; settings: for effect on SQ 4T1 primary tumor growth: antibody IP 3x/week, ixabepilone 3 mg/kg IV every four days x3, capecitabine 360 mg/kg oral 14 days; for day cohort reached size endpoint (mean tumor volume 1500 mm^3): per cohort
Description: The remaining 30 animals were included into a companion experiment to this study, looking for the effects of 1D11 on macrophage recruitment and activity (see below).
An entire cohort of mice was sacrificed when the average tumor volume for a single group within that cohort reached […] or greater.

subcutaneous 4T1 tumors [5] = experiment: Study 1 (09-3493): primary tumor growth, survival and time to endpoint in the syngeneic SQ 4T1 model; settings: for effect on SQ 4T1 primary tumor growth: antibody 10 mg/kg IP 3x/week, ixabepilone 6 mg/kg IV Q4Dx3, capecitabine 360 mg/kg oral QDx14
Description: • Time points: Day 0: Investigators inject 50,000 4T1 cells+[…] ® subcutaneously in the right flank • Day 3: Investigators begin 2-3×/week tumor measurements • Day 6: DCM Staff begin antibody dosing IP 3×/week • DCM Staff begin ixabepilone dosing IV Q4D×3 • DCM Staff begin capecitabine dosing by oral gavage QD×14 • Animals were sacrificed when the primary tumors reached a volume of 2000 mm^3 or prior to the study takedown if they presented with moribund conditions (lack of grooming, labored breathing, cachexia, anorexia, or lethargy).
On Day 0, 150 twelve week-old female BALB/c mice each received subcutaneous injections of 50,000 4T1 cells in […] ® in the right flank. Tumor-bearing mice were routinely monitored and regular tumor measurements 2-3×/week were conducted beginning on Day 6. Tumor volume was determined using the following formula: Tumor Volume=Length×Width^2×0.52
Six days after tumor cell injection, when tumor volumes averaged 80 mm^3, the animals were size-matched and divided into twelve treatment groups of ten mice each. […] At this point investigators were blinded to treatment group designations and therapeutic administration was initiated. All mice received 10 mg/kg of either 1D11, 13C4 or antibody vehicle administered in 100 μl IP three times per week (Table 1). Specific cohorts of mice received additional treatments of ixabepilone (6 mg/kg in 200□1 IV Q4D×3), capecitabine (360 mg/kg in 100 μl by oral gavage QD×14) or both.
Mice were sacrificed once primary tumor volumes reached 2000 mm^3 or greater or if the tumors became ulcerated>20% of the tumor's surface area, or if the animals presented with moribund conditions (lack of grooming, labored breathing, cachexia, anorexia or lethargy). Upon sacrifice, gross necropsies were performed and tumors, lungs and other tissues bearing metastases were harvested.

[6] = tested on: 4T1 experimental metastases; experiment: 4T1 model of experimental metastasis (intracardiac injection); format: in vivo, mouse; settings: 4T1 cells injected into left ventricle of the heart
Description: 1D11 was combined with paclitaxel in both a xenograft (MDA-MB-231) breast cancer model and the syngeneic 4T1 model of breast cancer. […] The MDA-MB-231 and 4T1 models were also used to test combinatorial therapies with 1D11 and the platinum compounds cisplatin or carboplatin.

Row | Compound | treatment-related toxicities [1] | effect on SQ 4T1 primary tumor growth / tumor volume (subcutaneous 4T1 tumors [2]) | toxicity during dosing [3] | effect on SQ 4T1 primary tumor growth (subcutaneous 4T1 tumors [4]) | day cohort reached size endpoint (mean tumor volume 1500 mm^3) (subcutaneous 4T1 tumors [4]) [study day] | effect on SQ 4T1 primary tumor growth (subcutaneous 4T1 tumors [5]) | survival (subcutaneous 4T1 tumors [5]; same dosing, sacrifice at tumor volume 2000 mm^3 or moribund) | inhibition of metastases [6] | average size of the tumors at the time of study take down (subcutaneous 4T1 tumors [2]; Day 23, average of cohort (vehicle, 13C4 or 1D11 plus the chemotherapeutic)) [mm^3]
1 | C/C(=C\c1csc(C)n1)[C@@H]1C[C@@H]2O[C@]2(C)CCC[C@H](C)[C@H](O)[C@@H](C)C(=O)C(C)(C)[C@@H](O)CC(=O)N1 [ixabepilone] | some peripheral neuropathy | significant reduction in tumor volume; also recorded: Inhibition of tumor growth | no toxicity issues observed; also recorded: no animals in the study displayed signs of toxicity | most efficacious at inhibiting 4T1 tumor growth as a monotherapy; also recorded: Inhibition of tumor growth | 29 | most efficacious at inhibiting 4T1 tumor growth compared to either antibody therapy or capecitabine; also recorded: Inhibition of tumor growth | greater than that of either the antibody or the capecitabine cohorts |  | 
2 | N.N.[Cl][Pt][Cl] [cisplatin] |  |  |  |  |  |  |  | able to inhibit metastases particularly to the bone | 
3 | CCCCCOC(=O)Nc1nc(=O)n([C@@H]2O[C@H](C)[C@@H](O)[C@H]2O)cc1F [capecitabine] |  | trend towards inhibited growth of the primary tumors; also recorded: Inhibition of tumor growth | no toxicity issues observed | very modest tumor growth inhibition; also recorded: Inhibition of tumor growth; also recorded: inhibited 4T1 tumor growth slightly | 27 | did inhibit tumor growth; also recorded: Inhibition of tumor growth; also recorded: inhibited 4T1 tumor growth but was not as efficacious as ixabepilone |  |  | ~700
